Laboratory results as given in US8148347B2, “Inhibition of interaction of PSD93 and PSDS95 with nNOS and NMDA receptors” (The Johns Hopkins University, priority 2000, dated 2012).

Legend:
[1] = test system: Male Sprague-Dawley rats; assay: tests of locomotor function (placing, grasping, righting reflex) and general behaviors; type: in vivo, rat; conditions: mean (SD)
Protocol: The effects of ODNs on locomotor function were examined using the following methods.^52 The animals were organized randomly into six groups: control (saline); 12.5 antisense ODN; 25 μg antisense ODN; 50 μg antisense ODN; 50 μg sense ODN; 50 μg missense ODN. The rats were pretreated with ODNs or saline in the manner described above. On the fifth day, 10 μl of saline was injected intrathecally for each rat. In some saline or antisense ODN (50 μg)-treated rats, fresh NMDA solution (1.25 μg/10 μl) was injected intrathecally. The following tests were performed with the experimenter blind to which group was treated with the agents: (1) Placing reflex: The rat was held with the hind limbs slightly lower than the forelimbs, and the dorsal surfaces of the hind paws were brought into contact with the edge of a table. The experimenter recorded whether the hind paws were placed on the table surface reflexively; (2) Grasping reflex: The rat was placed on a wire grid and the experimenter recorded whether the hind paws grasped the wire on contact; (3) Righting reflex: The rat was placed on its back on a flat surface and the experimenter noted whether it immediately assumed the normal upright position. […] In addition, the rat general behaviors including spontaneous activity were observed.

[2] = test system: Male Sprague-Dawley rats; assay: blood pressure and heart rate during isoflurane anesthesia; type: in vivo, rat
Excerpt: On the fifth day after saline or ODNs injection, each rat was placed in a clear plastic cone and anesthetized with 5% isoflurane in oxygen for three to five minutes. After tracheostomy, the trachea of each animal was intubated with a 16-gauge polyethylene catheter. The inspired isoflurane concentration was reduced to 2%, and the animals breathed spontaneously until cannulation of a carotid artery and a jugular vein with PE-50 tubing was accomplished. The isoflurane concentration was decreased further to 1.5%, and ventilation was controlled by a Harvard Animal Respirator (Harvard Apparatus, South Natick, Mass.) adjusted according to the measurement of arterial blood gases to maintain normal partial pressure of oxygen (PO2=91-94 mmHg), partial pressure of carbon dioxide (PCO2=33-41 mmHg) and pH (7.4-7.44). Electrocardiography and systolic and diastolic blood pressure were monitored using a Grass Polygraph (Astroumed Grass, Quincy, Mass.) and Gould Pressure Transducer (Gould, Cleveland, Ohio). Rectal temperature was maintained between 36.5 and 37.5° C. by use of a heating blanket and warming lights.
In some saline-treated rats, after initial baseline MAC determination, NMDA at the dose of 1.25 μg^38 or saline was injected intrathecally in a volume of 10 μl saline, followed by an injection of 10 μl saline to flush the catheter. Fresh NMDA solution was prepared for each experiment. […] At this isoflurane concentration, 10 min after the intrathecal injection of NMDA, the animals were tested again for reactivity to tail clamp. The concentration of isoflurane was increased, and response to tail clamp was checked every 12-15 min thereafter until a negative response was achieved. In some antisense ODN (50 μg)-treated rats, after initial MAC determination, NMDA or saline was also administered intrathecally. The MAC for isoflurane was again determined following the aforementioned procedures.

[3] = 50 μg, count of normal reflexes in five trials
[4] = 12.5 μg, count of normal reflexes in five trials
[5] = 25 μg, count of normal reflexes in five trials
[6] = 50 μg AS + 1.25 μg NMDA, five trials
[7] = pretreated with 50 μg antisense ODN, intrathecal NMDA 1.25 μg

5′-AAGCCCTTGTTCCCATTT-3′ (DNA, backbone and methylation of C not given here; listed as Rattus rattus) [MS, missense OND control, reference compound]
Grasping [1, 3]: 5 (0)
Placing [1, 3]: 5 (0)
Righting [1, 3]: 5 (0)
BP Diastolic ([2]; 50 μg, before the tail clamp): 105.75 ± 11.40 mmHg
BP Systolic ([2]; 50 μg, before the tail clamp): 121.33 ± 15.84 mmHg
Heart rate ([2]; 50 μg, before the tail clamp): 524.70 ± 44.90 beats/min

5′-TGTGATCTCCTCATACTC-3′ (DNA, backbone and methylation of C not given here; listed as Rattus rattus) [antisense oligonucletide corresponding to the PDZ domain nucleotides 241 to 258 of rat PSD-95/SAP90 mRNA]
Grasping [1, 4]: 5 (0)
Placing [1, 4]: 5 (0)
Righting [1, 4]: 5 (0)
Grasping [1, 5]: 5 (0)
Placing [1, 5]: 5 (0)
Righting [1, 5]: 5 (0)
Grasping [1, 6]: 4.83 (0.41)
Placing [1, 6]: 4.83 (0.41)
Righting [1, 6]: 4.83 (0.41)
Grasping [1, 3]: 4.67 (0.52)
Placing [1, 3]: 4.83 (0.41)
Righting [1, 3]: 4.83 (0.41)
BP Diastolic ([2]; 12.5 μg, before the tail clamp): 112.58 ± 7.14 mmHg
BP Systolic ([2]; 12.5 μg, before the tail clamp): 127.58 ± 11.72 mmHg
Heart rate ([2]; 12.5 μg, before the tail clamp): 534.80 ± 29.13 beats/min
BP Diastolic ([2]; 25 μg, before the tail clamp): 105.83 ± 7.89 mmHg
BP Systolic ([2]; 25 μg, before the tail clamp): 122.75 ± 10.81 mmHg
Heart rate ([2]; 25 μg, before the tail clamp): 541.20 ± 16.70 beats/min
BP Diastolic ([2]; 50 μg, before the tail clamp): 112.50 ± 11.20 mmHg
BP Systolic ([2]; 50 μg, before the tail clamp): 129.58 ± 11.73 mmHg
Heart rate ([2]; 50 μg, before the tail clamp): 514.20 ± 62.20 beats/min
Heart rate [2, 7]: 553±17 beats/min
diastolic blood pressure [2, 7]: 117.00±6.35 mmHg
systolic blood pressure [2, 7]: 138.00±5.77 mmHg
